Numbering of substitutions follows the chain as printed.
These compounds were tested against T1, High affinity choline transporter 1 (Rattus norvegicus, UniProt Q9JMD7) (assay: Binding affinity to rat choline transporter 1).
T1 sequence (Q9JMD7 whole entry): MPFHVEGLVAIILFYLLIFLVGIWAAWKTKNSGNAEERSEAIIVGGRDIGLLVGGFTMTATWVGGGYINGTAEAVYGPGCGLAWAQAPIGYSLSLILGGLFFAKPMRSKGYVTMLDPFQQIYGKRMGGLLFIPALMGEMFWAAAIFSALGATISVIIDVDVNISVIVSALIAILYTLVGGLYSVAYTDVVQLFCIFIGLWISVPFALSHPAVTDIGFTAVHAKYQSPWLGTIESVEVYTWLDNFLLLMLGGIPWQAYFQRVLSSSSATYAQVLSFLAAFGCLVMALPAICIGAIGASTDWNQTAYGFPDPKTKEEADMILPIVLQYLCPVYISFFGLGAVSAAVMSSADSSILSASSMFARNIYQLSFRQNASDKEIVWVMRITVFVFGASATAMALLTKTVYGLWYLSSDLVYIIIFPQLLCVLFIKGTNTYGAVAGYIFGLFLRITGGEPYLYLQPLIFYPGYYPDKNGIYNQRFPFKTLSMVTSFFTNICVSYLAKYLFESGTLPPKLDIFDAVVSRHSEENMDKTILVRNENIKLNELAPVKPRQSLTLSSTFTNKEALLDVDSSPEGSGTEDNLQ

SMILES	Ki [µM]
C[N+]1(C)CCO[C@@](O)(c2ccc(-c3ccc([C@@]4(O)C[N+](C)(C)CCO4)cc3)cc2)C1 [HEMICHOLINIUM DIBROMIDE]	0.01

Each compound was assayed against T2, High affinity choline transporter 1 (Mus musculus, UniProt Q8BGY9) (assay: Inhibition of [3H]choline uptake at choline transporter 1 in mouse brain synaptosome).
T2 sequence (Q8BGY9 whole entry): T1 sequence (Q9JMD7 whole entry) with P2S, A35P, F307Y, F386L, P467S, I513V, S519A
Assay type: tissue-based

SMILES	Ki [µM]
CNCCO	3800
C[N+](C)(C)c1ccccc1	75.2
C[N+](C)(C)CCCO	2.2
C[N+](C)(C)CCCCO	310
CN(C)CCCO	290
CC(=O)OCCC[N+](C)(C)C	190
COC(=O)CC[N+](C)(C)C	270
CCOC(=O)CC[N+](C)(C)C	340
COc1cc(C#CCC[N+](C)(C)C)cc(OC)c1OC	2
COc1cc(C#CCC[N+]23CCC(CC2)C3)cc(OC)c1OC	0.05
COc1cc(C#CCC[N+]23CCC(CC2)CC3)cc(OC)c1OC	0.09
CC[N+]1(CCC#Cc2cc(OC)c(OC)c(OC)c2)CCCCC1	0.18
CC[N+]1(CCC#Cc2cc(OC)c(OC)c(OC)c2)CCCC1	0.2
CCCCCCCC[N+]1(CCC#Cc2cc(OC)c(OC)c(OC)c2)CCCCC1	0.23
Cc1cc(C)nc(C)c1	107
C[N+]12CCC(CC1)C(=O)C2	0.521
C[N+]12CCC(CC1)CC2	4.7
C1CN2CCC1CC2	40.1

SMILES	Ki [µM]
C[N+]12CCC(O)(CC1)CC2	72.1
CC1C(O)C2CC[N+]1(C)CC2 (configuration not stated)	210
C[n+]1cccc(C(N)=O)c1	361
CC[N+](CC)(CC)CCC#Cc1cc(OC)c(OC)c(OC)c1	0.701
CCCCC[N+]1(CCC#Cc2cc(OC)c(OC)c(OC)c2)CCCCC1	0.02
OCC[N+]12CCC(CC1)CC2	0.64
CCCCCCCCCCCCCCCC[n+]1ccccc1	32.1
Nc1ccncc1N [AMIFAMPRIDINE]	820
C[N+](C)(C)CCO.[Cl-] [CHOLINE CHLORIDE]	0.681
Nc1ccncc1 [DALFAMPRIDINE]	481
CNC [DIMETHYLAMINE]	9420
CN(C)CCO [DIMETHYLAMINOETHANOL]	55.7
CN [METHYLAMINE]	35100
CN1CCC[C@H]1c1cccnc1 [NICOTINE]	520
CCCC[N+](CCCC)(CCCC)CCCC [TETRABUTYLAMMONIUM]	1050
C[N+](C)(C)C [TETRAMETHYLAMMONIUM]	30.1
CC[N+](CC)(CC)CC [TETRYLAMMONIUM]	260
CN(C)C [TRIMETHYLAMMONIUM]	340
